Patent publication US10399966B2, “Compounds for treatment of trypanosomes and neurological pathogens and uses thereof” (The University of North Carolina at Chapel Hill, priority 2016, dated 2019)
Read-outs that look alike come from different tables or passages of the source.

Assays:
[1] = Efficacy PK blood samples, acute model; format: in vivo, mouse; details: 50 mg/kg po b.i.d.
Description: In a model of the acute phase of HAT, five mice infected with T. b. rhodesiense STIB900 were given the test compound at 50 mg/kg po b.i.d.×4 days, beginning 2 days post-infection. Efficacy PK blood samples were collected from three of the five mice prior to dose 7, and at 1 h and 6 h post-dose. Average plasma levels of the test compound were 9.1±7.6 μM (pre-dose), 18.6±7.2 μM (1 h), and 15.0±4.2 μM (6 h). Compound 1 attained 5/5 cures as determined by the absence of detectable parasitemia in any of the treated mice 60 days post-infection (FIG. 1).

[2] = test system: T. b. brucei; test: In vitro antitrypanosomal activity against T. brucei (growth inhibition); format: cell-based, Trypanosoma brucei
Outline: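 Dose-response EC50 against T. brucei parasites with 0.4% DMSO final, 48 h at 37 °C; parasite density quantified by ATP luminescence (CellTiter-Glo).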

[3] = test system: Trypanosoma cruzi; test: Efficacy against T. cruzi in vitro; format: cell-based
[4] = test system: human hepatocytes HepG2; test: Cytotoxicity against HepG2 cells
[5] = Metabolic stability in human liver microsomes; format: in vitro ADME
[6] = Mouse oral pharmacokinetics; format: in vivo
Description: […] Experiments were performed with groups of three mice per compound. Plasma was separated and extracted with acetonitrile for measurements of compound concentrations by liquid chromatography/tandem mass spectrometry.

[7] = Distribution between mouse plasma and brain (brain penetration, ip); format: in vivo
Outline: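 Mice (n=3) received a single 5 mg/kg ip dose in 7% Tween 80, 3% ethanol, 5% DMSO, 0.9% saline and were sacrificed 1 h post-dose. Plasma and acetonitrile brain homogenates analysed by LC/MS/MS; brain concentration corrected for 2.5% vasculature volume, assuming 1 g = 1 mL.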

[8] = Table 14, mice, single ip dose 5 mg/kg, one hour post-dose, ± SEM of 3 mice (compound 3: 6 mice)

SMILES: O=C(Nc1ccc2sc(-c3ccc(F)c(F)c3)nc2c1)N1CC[C@H](F)C1 [Compound 1, (S)-2-(3,4-Difluorophenyl)-5-(3-fluoro-N-pyrrolidylamido)benzothiazole]
- Average plasma levels ([1]; 1 h post dose 7): 18.6 ± 7.2 µM
- Average plasma levels ([1]; 6 h post dose 7): 15.0 ± 4.2 µM
- Average plasma levels ([1]; prior to dose 7 (pre-dose)): 9.1 ± 7.6 µM
- EC90 ([2]; Table 1, Trypanosoma brucei, read-out: EC90): 54.8 nM
- EC50 ([2]; Trypanosoma brucei, Table 1, Trypanosoma brucei, read-out: EC50): 34.8 nM
- EC50 ([2]; Trypanosoma brucei, Table 6, read-out: T. brucei EC50): 34.8 nM
- EC50 ([2]; Trypanosoma brucei, Table 8, read-out: T. brucei EC50): 34.8 nM
- EC50 ([2]; Trypanosoma brucei, Table 11, read-out: T. b. brucei EC50): 34.8 nM
- EC50 ([2]; Trypanosoma brucei, Table 12, read-out: T. b. brucei EC50): 34.8 nM
- EC50 ([2]; Trypanosoma brucei, Table 9, read-out: T. brucei EC50): 34.8 nM
- EC90 ([2]; Trypanosoma brucei, Table 9, read-out: T. brucei EC90): 54.8 nM
- EC50 ([3]; Table 1, Trypanosoma cruzi, read-out: EC50): 118 nM
- EC90 ([3]; Table 1, Trypanosoma cruzi, read-out: EC90): 178 nM
- EC50 ([3]; Trypanosoma cruzi, Table 6, read-out: T. cruzi EC50): 58.5 nM
- EC50 ([3]; Trypanosoma cruzi, Table 10, read-out: T.cruzi EC50): 118 nM
- EC90 ([3]; Trypanosoma cruzi, Table 10, read-out: T.cruzi EC90): 178 nM
- toxicity to the HepG2 cells (in words) [4]: no detectable toxicity
- EC50 ([4]; Homo sapiens, HepG2, read-out: HepG2 EC50): > 50000 nM
- EC90 ([4]; read-out: HepG2 EC90, concentration required to inhibit growth by 90%, human hepatocytes): > 50000 nM
- Human microsomes, percentage of compound remaining ([5]; Table 12, after 60 min (where t1/2 > 60 min)): 53%
- half-life at 1.5 μM ([5]; both sexes, human, liver microsomes, pH 7.4, Table 12, 37° C., NADPH (1 mM), microsomes 0.5 mg/mL, test compounds 1.5 μM, read-out: Human microsomes t1/2): > 1 h
- half-life at 3 μM ([5]; both sexes, liver microsomes, pH 7.4, human microsomes, read-out: microsomal half-life): 1 h
- Mouse oral PK Tlast ([6]; Table 5): 1440 min
- Mouse oral PK Average AUC ([6]; Table 5, n = 3): 13217 ± 2156 (n = 3) min * μmol/L
- AUC0 min-∞ ([6]; Table 13, mice, single 50 mg/kg oral gavage, vehicle Phosal 53 MCT(60%), PEG400 (30%), EtOH (10%)): 14673 ± 2833 µM·min
- Cmax ([6]; Table 13, mice, single 50 mg/kg oral gavage, vehicle Phosal 53 MCT(60%), PEG400 (30%), EtOH (10%), read-out: Cmax): 18.6 ± 5.54 µM
- Cmax ([6]; Table 13, mice, single 50 mg/kg oral gavage, vehicle Tween 80 (7%), EtOH (3%), DMSO (5%) in 0.9% NaCl, ± SEM of 3 mice, 50 mg/kg, read-out: Cmax): 23.3 µM
- AUC0 min-∞ ([6]; Table 13, mice, single 50 mg/kg oral gavage, vehicle methylcellulose cP 400 (0.5%), Tween 80 (0.5%) in water): 6352 ± 469 µM·min
- Cmax ([6]; Table 13, mice, single 50 mg/kg oral gavage, vehicle methylcellulose cP 400 (0.5%), Tween 80 (0.5%) in water, read-out: Cmax): 8.54 ± 0.41 µM
- percent of the Cmax remaining ([6]; mouse oral 50 mg/kg, 24 h time point): Less than 1%
- Cmax ([6]; mouse, plasma, po, 50 mg/kg, Table 5, n = 3, read-out: Mouse oral PK Average Cmax): 23.3 ± 5.22 µM
- Tmax ([6]; mouse, plasma, po, 50 mg/kg, Table 5, read-out: Mouse oral PK Tmax (converted)): 2 h
- Average brain/plasma ratio ([7]; Table 2, mouse, n = 3): 4.0000 ± 0.624
- Average [compound] brain ([7]; Table 8, groups of 3 mice (compound 3: ± SEM of 6 mice)): 9.07 ± 6.88 µM
- Brain/plasma ratio ([7]; Table 14, mice, single ip dose 5 mg/kg, one hour post-dose): 4.0
- [compound]Brain [7, 8]: 9.07 ± 3.973 µM
- [compound]Plasma [7, 8]: 2.27 ± 0.888 µM
- concentration at 1 h ([7]; mouse, in vivo, 5 mg/kg, Table 2, mouse, n = 3, read-out: Average concentration in brain): 9.07 ± 6.88 µM
- concentration at 1 h ([7]; mouse, in vivo, 5 mg/kg, Table 2, mouse, n = 3, read-out: Average concentration in plasma): 2.27 ± 1.54 µM
- concentration at 60 min ([7]; mouse, in vivo, 5 mg/kg, Table 5 r15, mouse brain penetration (60 min), n = 3): 2.27 ± 1.54 µM
- concentration at 1 h ([7]; mouse, in vivo, 5 mg/kg, Table 8, groups of 3 mice (compound 3: ± SEM of 6 mice), read-out: Average [compound] plasma): 2.27 ± 1.54 µM
